We go through 33 molecules from patent US8586755B2, “Substituted nicotinamides as KCNQ2/3 modulators” (Grünenthal GmbH, priority 2009, dated 2013).

This assay concerns the target T1, KCNQ2/3 channels (Homo sapiens, UniProt O43525+O43526).
T1 construct: expressed in transfected cells
Briefly: Fluorescence assay using a voltage sensitive dye (fluorimetry). It is filed as cell-based. The note with it: CHO-K1 cells expressing KCNQ2/3 channels; for Emax / Fluorimetry % efficacy (retigabine 50 μM = 100%): retigabine 50 μM = 100%; for Emax: read-out: Fluorimetry % efficacy (retigabine 50 μM = 100%); for EC50: agonistic activity. In outline: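 CHO-K1 cells expressing human KCNQ2/3, loaded 45 min with red membrane-potential dye in ES buffer pH 7.4 (1 mM KCl), compound 30 min at room temperature. Fluorescence (525/560 nm) read before (F1) and at peak after KCl to 92 mM final (F2); agonism from F2/F1 change, EC50 fitted.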

Take `Cc1ccccc1CCNC(=O)c1cccnc1SCCCc1ccc(F)cc1` [compound 86, 2-[3-(4-Fluorophenyl)-propylsulfanyl]-N-[2-(o-tolyl)-ethyl]-pyridine-3-carboxylic acid amide]: the Emax was 26%.
The term EC50 denotes the concentration giving half of the maximal effect. For the molecule `O=C(NCc1cccc(OC(F)(F)F)c1)c1cccnc1SCCCc1ccc(F)cc1` [compound 87, 2-[3-(4-Fluorophenyl)-propylsulfanyl]-N-[[3-(trifluoromethyloxy)-phenyl]-methyl]-pyridine-3-carboxylic acid amide], the EC50 worked out at 101 nM and the Emax turned out to be 116%.
On the same counts, the results for `O=C(NCc1ccc(O)cc1)c1cccnc1SCCCc1ccc(F)cc1` [compound 88, 2-[3-(4-Fluorophenyl)-propylsulfanyl]-N-[(4-hydroxyphenyl)-methyl]-pyridine-3-carboxylic acid amide] are 3760 nM and 53%.
Turning to `O=C(NCCc1ccncc1)c1cccnc1SCCCc1ccc(F)cc1` [compound 89, 2-[3-(4-Fluorophenyl)-propylsulfanyl]-N-(2-pyridine-4-yl-ethyl)-pyridine-3-carboxylic acid amide], the EC50 was 5450 nM and the Emax came out at 72%.
For `Cc1ccc(CCNC(=O)c2cccnc2SCCCc2ccc(F)cc2)cc1` [compound 90, 2-[3-(4-Fluorophenyl)-propylsulfanyl]-N-[2-(p-tolyl)-ethyl]-pyridine-3-carboxylic acid amide], the Emax was 37%.
On to `CC(CCSc1ncccc1C(=O)NCC1CC2CCC1C2)c1ccc(F)cc1` (stereo not shown) [compound 91, N-(5-Bicyclo[2.2.1]heptanyl-methyl)-2-[3-(4-fluorophenyl)-butylsulfanyl]-pyridine-3-carboxylic acid amide], for which the EC50 stood at 184 nM and the Emax worked out at 241%.
In the same order, the values of `O=C(NCC1CC2CCC1C2)c1cccnc1SCCCc1cc(F)c(F)cc1F` (stereo not shown) [compound 92, N-(5-Bicyclo[2.2.1]heptanyl-methyl)-2-[3-(2,4,5-trifluoro-phenyl)-propylsulfanyl]-pyridine-3-carboxylic acid amide] are 138 nM and 270%.
On the same counts, the results for `O=C(NCCCc1ccccn1)c1cccnc1SCCCc1ccc(F)cc1` [compound 93, 2-[3-(4-Fluorophenyl)-propylsulfanyl]-N-(3-pyridine-2-yl-propyl)-pyridine-3-carboxylic acid amide] are 2810 nM and 154%.
In the same order, the values of `O=C(NCCCc1cccnc1)c1cccnc1SCCCc1ccc(F)cc1` [compound 94, 2-[3-(4-Fluorophenyl)-propylsulfanyl]-N-(3-pyridine-3-yl-propyl)-pyridine-3-carboxylic acid amide] are 2210 nM and 181%.
Consider `O=C(NCCCc1ccncc1)c1cccnc1SCCCc1ccc(F)cc1` [compound 95, 2-[3-(4-Fluorophenyl)-propylsulfanyl]-N-(3-pyridine-4-yl-propyl)-pyridine-3-carboxylic acid amide], for which a half-maximal effect (EC50) was put at 2060 nM and the Emax amounted to 147%.
For `CCCNC(=O)c1cccnc1SCCCc1ccc(F)cc1` [compound 96, 2-[3-(4-Fluorophenyl)-propylsulfanyl]-N-propyl-pyridine-3-carboxylic acid amide], the EC50 is 660 nM and the Emax turned out to be 194%.
Turning to `CCCCNC(=O)c1cccnc1SCCCc1ccc(F)cc1` [compound 97, N-Butyl-2-[3-(4-fluorophenyl)-propylsulfanyl]-pyridine-3-carboxylic acid amide], a half-maximal response (EC50) required 134 nM and the Emax was determined as 196%.
On to `O=C(NCc1cccs1)c1cccnc1SCCCc1cccnc1` [compound 98, 2-(3-Pyridin-3-yl-propylsulfanyl)-N-(thiophen-2-yl-methyl)-pyridine-3-carboxylic acid amide], for which the Emax is 29%.
Turning to `Cc1ccc(CCCSc2ncccc2C(=O)NCc2cccs2)cc1` [compound 99, 2-[3-(p-Tolyl)-propylsulfanyl]-N-(thiophen-2-yl-methyl)-pyridine-3-carboxylic acid amide], it took 178 nM to reach a half-maximal effect (EC50) and the Emax is 70%.
Consider `O=C(NCc1cccs1)c1cccnc1SCCCCc1ccccc1` [compound 100, 2-(4-Phenyl-butylsulfanyl)-N-(thiophen-2-yl-methyl)-pyridine-3-carboxylic acid amide], for which the response was half-maximal at 1590 nM (EC50) and the Emax stood at 48%.
Consider `O=C(NCc1cccs1)c1cccnc1SCCCc1ccncc1` [compound 101, 2-(3-Pyridin-4-yl-propylsulfanyl)-N-(thiophen-2-yl-methyl)-pyridine-3-carboxylic acid amide], for which the Emax came to 38%.
On to `O=C(NCc1cccs1)c1cccnc1SCCCc1ccc2ccccc2c1` [compound 102, 2-(3-Naphthalen-2-yl-propylsulfanyl)-N-(thiophen-2-yl-methyl)-pyridine-3-carboxylic acid amide], for which the EC50 came out at 456 nM and the Emax came to 111%.
As to `Cc1cccc(CCCSc2ncccc2C(=O)NCc2cccs2)c1` [compound 103, 2-[3-(m-Tolyl)-propylsulfanyl]-N-(thiophen-2-yl-methyl)-pyridine-3-carboxylic acid amide], the EC50 amounted to 111 nM and the Emax amounted to 129%.
In the case of `O=C(NCc1cccs1)c1cccnc1SCCCc1cccs1` [compound 104, N-(Thiophen-2-yl-methyl)-2-(3-thiophen-2-yl-propylsulfanyl)-pyridine-3-carboxylic acid amide], the response was half-maximal at 361 nM (EC50) and the Emax is 87%.
Take `CC(CCc1ccccc1)Sc1ncccc1C(=O)NCc1cccs1` (stereo not shown) [compound 105, 2-[(1-Methyl-3-phenyl-propyl)sulfanyl]-N-(thiophen-2-yl-methyl)-pyridine-3-carboxylic acid amide]: the response was half-maximal at 479 nM (EC50) and the Emax came out at 166%.
Regarding `O=C(NCc1cccs1)c1cccnc1SCCCc1ccsc1` [compound 106, N-(Thiophen-2-yl-methyl)-2-(3-thiophen-3-yl-propylsulfanyl)-pyridine-3-carboxylic acid amide], the EC50 was 191 nM and the Emax stood at 95%.
For the molecule `O=C(NCc1cccs1)c1cccnc1SC1CCCCC1Cc1ccccc1` (stereo not shown) [compound 108, 2-[(2-Benzyl-cyclohexyl)sulfanyl]-N-(thiophen-2-yl-methyl)-pyridine-3-carboxylic acid amide], the EC50 is 165 nM and the Emax is 143%.
On the same counts, the results for `Cc1cc(CCCSc2ncccc2C(=O)NCc2cccs2)cc(C(F)(F)F)c1` [compound 109, 2-[3-[3-Methyl-5-(trifluoromethyl)-phenyl]-propylsulfanyl]-N-(thiophen-2-yl-methyl)-pyridine-3-carboxylic acid amide] are 180 nM and 129%.
For `O=C(NCc1cccs1)c1cccnc1SCCCCc1ccc(F)c(F)c1` [compound 110, 2-[4-(3,4-Difluoro-phenyl)-butylsulfanyl]-N-(thiophen-2-yl-methyl)-pyridine-3-carboxylic acid amide], a half-maximal response (EC50) required 462 nM and the Emax was found to be 110%.
For the molecule `O=C(NCc1cccs1)c1cccnc1SCCCc1ccccn1` [compound 111, 2-(3-Pyridin-2-yl-propylsulfanyl)-N-(thiophen-2-yl-methyl)-pyridine-3-carboxylic acid amide], the EC50 was 11100 nM and the Emax is 61%.
As for `O=C(NCc1cccs1)c1ccc(N2CCCC2)nc1SCCCc1ccccc1` [compound 112], a half-maximal effect (EC50) was put at 494 nM and the “Fluorimetry % efficacy (retigabine 50 μM = 100%)” value stood at 104%.
Turning to `Cc1ccc(CCCSc2ncccc2C(=O)NCc2cccs2)cc1C(F)(F)F` [compound 113, 2-[3-[4-Methyl-3-(trifluoromethyl)-phenyl]-propylsulfanyl]-N-(thiophen-2-yl-methyl)-pyridine-3-carboxylic acid amide], the EC50 came to 5200 nM and the Emax worked out at 90%.
Take `O=C(NCc1cccs1)c1cccnc1SC1CCCC(c2ccccc2)C1` (stereo not shown) [compound 114, 2-[(3-Phenyl-cyclohexyl)sulfanyl]-N-(thiophen-2-yl-methyl)-pyridine-3-carboxylic acid amide]: the EC50 stood at 553 nM and the Emax was determined as 128%.
For the molecule `O=C(NCC1CC2CCC1C2)c1cccnc1SCCC(F)(F)c1ccc(F)cc1` (stereo not shown) [compound 115], the EC50 is 42 nM and the “Fluorimetry % efficacy (retigabine 50 μM = 100%)” value turned out to be 213%.
`O=C(NCC1CCCCCC1)c1cccnc1SCCC(F)(F)c1ccc(F)cc1` [compound 117, N-(Cycloheptyl-methyl)-2-[[3,3-difluoro-3-(4-fluorophenyl)-propyl]sulfanyl]-pyridine-3-carboxylic acid amide]: the concentration giving a half-maximal response (EC50) is 35 nM and the Emax was 160%.
For the molecule `O=C(NCc1cccs1)c1cccnc1SCCC(F)(F)c1ccc(F)cc1` [compound 118, 2-[[3,3-Difluoro-3-(4-fluorophenyl)-propyl]sulfanyl]-N-(thiophen-2-yl-methyl)-pyridine-3-carboxylic acid amide], a half-maximal response (EC50) required 37 nM and the Emax is 159%.
With `O=C(NCC1CCc2ccccc2C1)c1cccnc1SCCCc1ccc(F)cc1` (stereo not shown) [compound 119, 2-[3-(4-Fluorophenyl)-propylsulfanyl]-N-(1,2,3,4-tetrahydro-naphthalen-2-yl-methyl)-pyridine-3-carboxylic acid amide], the Emax was 30%.
Turning to `O=C(NCC1Cc2ccccc2C1)c1cccnc1SCCCc1ccc(F)cc1` [compound 120, N-(2,3-Dihydro-1H-inden-2-yl-methyl)-2-[3-(4-fluorophenyl)-propylsulfanyl]-pyridine-3-carboxylic acid amide], the EC50 was found to be 307 nM and the Emax stood at 61%.
